What all share (format): cell-based
In experiment [1] the target is mouse fibroblast cell line transfected with the HER-2 oncogene (3T3/neu) (UniProt P04626, cells depend on it, species not given). Briefly: Cell proliferation assay (SRB), 3T3/neu. As to conditions: for GI50: read-out: CELL IC50 3T3/NEU (converted).
Another experiment deals with A431 cells. Briefly: Cell proliferation assay (SRB), A431. To be noted: for IC50: Homo sapiens, A-431, 48 h, read-out: CELL IC50 A431.
A further experiment deals with SK-Br-3 cells. Briefly: Cell proliferation assay (SRB), SK-Br-3. As to conditions: for IC50: Homo sapiens, SK-BR-3, 48 h, read-out: CELL IC50 SKBr3.
The next experiment concerns MDA-MB-435 cells. Kind of experiment: Cell proliferation assay (SRB), MDA-MB-435. As to conditions: for IC50: Homo sapiens, MDA-MB-435, 48 h, read-out: CELL IC50 MDA-MB-435.
For the next experiment, the system named is SW620 cells. Kind of experiment: Cell proliferation assay (SRB), SW620. To be noted: for IC50: Homo sapiens, SW-620, 48 h, read-out: CELL IC50 SW620.

Converted amounts (≈) assume the structure as drawn. Like-named read-outs stand apart in the source and are kept apart here.

Usually IC50 stands for the concentration needed to halve the response being measured.

As for “4-{3-chloro-4-[(4-oxo-3,4-dihydro-2-quinazolinyl)sulfanyl]anilino}-7-methoxy-6-hydro-2-quinazolinyl)sulfanyl]anilino}-7-methoxy-6-nitro-3-quinolinecarbonitrile [Example 44]”, the “CELL IC50 3T3/NEU” value in experiment [1] (mouse fibroblast cell line transfected with the her-2 oncogene (3t3/neu)) came to 4.54 µg/mL. For the same compound, in the experiment on A431 cells, the “CELL IC50 A431” value was determined as 2.28 µg/mL. Also, the “CELL IC50 SKBr3” value in the experiment on SK-Br-3 cells worked out at 4.54 µg/mL. Further, the “CELL IC50 MDA-MB-435” value in the experiment with MDA-MB-435 cells was greater than 5 µg/mL. Further, the “CELL IC50 SW620” value in the experiment on SW620 cells came out at 1.96 µg/mL.

`C=CC(=O)Nc1ccc2ncc(C#N)c(Nc3ccc(Sc4nccn4C)c(Cl)c3)c2c1` [Example 21, N-{4-[3-Chloro-4-(1-methyl-1H-imidazol-2-ylsulfanyl)-phenylamino]-3-cyano-quinolin-6-yl}-acrylamide]: the GI50 in experiment [1] (EGFR −, Her-2 +++, 2 days, SRB) was 1000 nM. Also, the IC50 in the experiment on A431 cells (EGFR +++, Her-2 +, 2 days, SRB) stood at 0.62 µg/mL (≈ 1.35 µM); with SK-Br-3 cells (EGFR −, Her-2 +++, 2 days, SRB), 0.01 µg/mL (≈ 0.0217 µM); in the experiment with MDA-MB-435 cells (EGFR −, Her-2 −, 2 days, SRB), 4.57 µg/mL (≈ 9.91 µM); in the experiment with SW620 cells (EGFR −, Her-2 −, 2 days, SRB), 1.84 µg/mL (≈ 3.99 µM).

For the compound `CCOc1cc2ncc(C#N)c(Nc3ccc4cc[nH]c4c3)c2cc1OCC` [Example 22, 6,7-Diethoxy-4-(1H-indol-6-ylamino)-quinoline-3-carbonitrile], the GI50 in experiment [1] (EGFR −, Her-2 +++, 2 days, SRB) is 2510 nM. Moreover, the IC50 in the experiment on A431 cells (EGFR +++, Her-2 +, 2 days, SRB) turned out to be 0.123 µg/mL (≈ 0.33 µM); with SK-Br-3 cells (EGFR −, Her-2 +++, 2 days, SRB), 0.0374 µg/mL (≈ 0.1 µM); in the experiment with MDA-MB-435 cells (EGFR −, Her-2 −, 2 days, SRB), 0.365 µg/mL (≈ 0.98 µM); in the experiment on SW620 cells (EGFR −, Her-2 −, 2 days, SRB) it was 0.286 µg/mL (≈ 0.768 µM).

Regarding `CCOc1cc2ncc(C#N)c(Nc3ccc4c(c3)S(=O)(=O)C=C4)c2cc1OCC` [Example 30, 4-(1,1-Dioxo-1H-1-benzo[b]thiophen-6-ylamino)-6,7-diethoxy-q uinoline-3-carbonitrile], the “CELL IC50 3T3/NEU” value in experiment [1] (EGFR −, Her-2 +++, 2 days, SRB) worked out at 0.251 µg/mL. Besides, in the experiment with A431 cells (EGFR +++, Her-2 +, 2 days, SRB), the “CELL IC50 A431” value came out at 0.257 µg/mL. In addition, the “CELL IC50 SKBr3” value in the experiment on SK-Br-3 cells (EGFR −, Her-2 +++, 2 days, SRB) amounted to 0.336 µg/mL. In the experiment with MDA-MB-435 cells (EGFR −, Her-2 −, 2 days, SRB), the “CELL IC50 MDA-MB-435” value came out at 0.00328 µg/mL. The “CELL IC50 SW620” value with SW620 cells (EGFR −, Her-2 −, 2 days, SRB) was found to be 0.146 µg/mL.

Regarding `COc1cc2c(Nc3ccc4cn[nH]c4c3)c(C#N)cnc2cc1OCCCN1CCOCC1` [Example 34, 4-(1H-Indazol-6-ylamino)-6-methoxy-7-(3-morpholin-4-yl-propoxy)-quinoline-3-carbonitrile], the GI50 in experiment [1] (EGFR −, Her-2 +++, 2 days, SRB) is greater than 10900 nM. For the same compound, the IC50 in the experiment with A431 cells (EGFR +++, Her-2 +, 2 days, SRB) is greater than 5 µg/mL; with SK-Br-3 cells (EGFR −, Her-2 +++, 2 days, SRB), greater than 5 µg/mL; in the experiment on MDA-MB-435 cells (EGFR −, Her-2 −, 2 days, SRB), greater than 5 µg/mL; with SW620 cells (EGFR −, Her-2 −, 2 days, SRB), greater than 5 µg/mL.

On to `COc1cc2ncc(C#N)c(Nc3ccc(Sc4nccn4C)c(Cl)c3)c2cc1[N+](=O)[O-]` [Example 35, 4-({3-chloro-4-[(1-methyl-1H-imidazol-2-yl)sulfanyl]phenyl}amino)-7-methoxy-6-nitro-3-quinolinecarbonitrile], for which the GI50 in experiment [1] (EGFR −, Her-2 +++, 2 days, SRB) was 8760 nM. The IC50 in the experiment on A431 cells (EGFR +++, Her-2 +, 2 days, SRB) was found to be 2.88 µg/mL (≈ 6.17 µM); in the experiment with SK-Br-3 cells (EGFR −, Her-2 +++, 2 days, SRB), 0.669 µg/mL (≈ 1.43 µM); in the experiment with MDA-MB-435 cells (EGFR −, Her-2 −, 2 days, SRB) it was 1 µg/mL (≈ 2.14 µM); in the experiment on SW620 cells (EGFR −, Her-2 −, 2 days, SRB), 1.55 µg/mL (≈ 3.32 µM).

For `COc1cc2ncc(C#N)c(Nc3ccc(Sc4nccn4C)c(Cl)c3)c2cc1N` [Example 36, 6-amino-4-({3-chloro-4-[(1-methyl-1H-imidazol-2-yl)sulfanyl]phenyl}amino)-7-methoxy-3-quinolinecarbonitrile], the GI50 in experiment [1] (EGFR −, Her-2 +++, 2 days, SRB) is 2430 nM. The IC50 in the experiment with A431 cells (EGFR +++, Her-2 +, 2 days, SRB) was found to be 3.04 µg/mL (≈ 6.96 µM); in the experiment on SK-Br-3 cells (EGFR −, Her-2 +++, 2 days, SRB) it was 0.011 µg/mL (≈ 0.0252 µM); in the experiment on MDA-MB-435 cells (EGFR −, Her-2 −, 2 days, SRB) it was 0.39 µg/mL (≈ 0.893 µM); in the experiment with SW620 cells (EGFR −, Her-2 −, 2 days, SRB) it was 3.16 µg/mL (≈ 7.23 µM).

Turning to `COc1cc2ncc(C#N)c(Nc3ccc(Sc4nccs4)c(Cl)c3)c2cc1[N+](=O)[O-]` [Example 38, 4-{[3-chloro-4-(1,3-thiazol-2-ylsulfanyl)phenyl]amino}-7-methoxy-6-nitro-3-quinolinecarbonitrile], in experiment [1] (EGFR −, Her-2 +++, 2 days, SRB), the GI50 was 558 nM. Also, the IC50 stood at 0.148 µg/mL (≈ 0.315 µM) in the experiment on A431 cells (EGFR +++, Her-2 +, 2 days, SRB); 0.124 µg/mL (≈ 0.264 µM) in the experiment with SK-Br-3 cells (EGFR −, Her-2 +++, 2 days, SRB); 0.35 µg/mL (≈ 0.745 µM) with MDA-MB-435 cells (EGFR −, Her-2 −, 2 days, SRB); 0.15 µg/mL (≈ 0.319 µM) with SW620 cells (EGFR −, Her-2 −, 2 days, SRB).

As to `COc1cc2ncc(C#N)c(Nc3ccc(Sc4nccs4)c(Cl)c3)c2cc1N` [Example 39, 6-amino-4-{[3-chloro-4-(1,3-thiazol-2-ylsulfanyl)phenyl]amino}-7-methoxy-3-quinolinecarbonitrile], the GI50 in experiment [1] (EGFR −, Her-2 +++, 2 days, SRB) is 757 nM. Besides, the IC50 with A431 cells (EGFR +++, Her-2 +, 2 days, SRB) came to 0.663 µg/mL (≈ 1.51 µM); in the experiment on SK-Br-3 cells (EGFR −, Her-2 +++, 2 days, SRB) it was 0.236 µg/mL (≈ 0.536 µM); in the experiment with MDA-MB-435 cells (EGFR −, Her-2 −, 2 days, SRB), 0.65 µg/mL (≈ 1.48 µM); in the experiment with SW620 cells (EGFR −, Her-2 −, 2 days, SRB), 0.55 µg/mL (≈ 1.25 µM).

For `COc1cc2ncc(C#N)c(Nc3ccc(-n4ccnc4)c(Cl)c3)c2cc1[N+](=O)[O-]` [Example 41], in experiment [1] (EGFR −, Her-2 +++, 2 days, SRB), the “CELL IC50 3T3/NEU” value is 1.09 µg/mL. Besides, the “CELL IC50 A431” value with A431 cells (EGFR +++, Her-2 +, 2 days, SRB) was 1.79 µg/mL. The “CELL IC50 SKBr3” value in the experiment on SK-Br-3 cells (EGFR −, Her-2 +++, 2 days, SRB) was found to be 1.48 µg/mL. The “CELL IC50 MDA-MB-435” value in the experiment with MDA-MB-435 cells (EGFR −, Her-2 −, 2 days, SRB) worked out at 0.95 µg/mL. For the same compound, the “CELL IC50 SW620” value in the experiment on SW620 cells (EGFR −, Her-2 −, 2 days, SRB) came out at 1.66 µg/mL.

As for `COc1cc2ncc(C#N)c(Nc3ccc(-n4ccnc4)c(Cl)c3)c2cc1N` [Example 42], in experiment [1] (EGFR −, Her-2 +++, 2 days, SRB), the “CELL IC50 3T3/NEU” value amounted to 0.53 µg/mL. Also, the “CELL IC50 A431” value with A431 cells (EGFR +++, Her-2 +, 2 days, SRB) worked out at 1.63 µg/mL. Moreover, the “CELL IC50 SKBr3” value in the experiment with SK-Br-3 cells (EGFR −, Her-2 +++, 2 days, SRB) came to 1.73 µg/mL. Also, the “CELL IC50 MDA-MB-435” value in the experiment on MDA-MB-435 cells (EGFR −, Her-2 −, 2 days, SRB) is 1.27 µg/mL. Moreover, the “CELL IC50 SW620” value in the experiment with SW620 cells (EGFR −, Her-2 −, 2 days, SRB) was 5.99 µg/mL.
